One data set relates to HL-60. Put plainly: MTT antiproliferative assay, 72 h, HL-60. The data set is classed as cell-based, human. The note with it: 72 hours exposition. As to the method:
(§1) Anticancer activity of selected compounds of invention, PDI A3-inhibitors has been also tested in vitro in antiproliferative assay in normoxic and hypoxic conditions as well in estrogen-stimulated cancer cells. In the experiment, cells were seeded on 96-well plates (Sarstedt, Germany) in appropriate culture medium at a density of 10^5 cells/mL 24 h before adding the tested compounds. Cells were treated with each compound in four concentrations in the range 0.1-100 μg/mL. […] After 72 h of compound treatment at 37° C., 5% CO2 humid atmosphere and in wo different oxygen level conditions: 21%—normal and <1%—hypoxia. In some experiments the MDA-MB-231 and MCF-7 cells were seeded with or without 200 nM estradiol and after 24 h the tested compounds were added. A previously described sulforhodamine B antiproliferative assay was used with minor modifications (Skehan P et al., 1990). Briefly, cells were fixed with 50 μL/well of 50% (w/v) trichloroacetic acid (Avantor Performance Materials, Gliwice, Poland). After 1 h incubation, plates were washed several times with tap water and 50 μL of 0.4% (w/v) solution of sulforhodamine B (Sigma-Aldrich, Germany) in 1% (v/v) acetic acid (Avantor Performance Materials, Gliwice, Poland) was added to each well. After 30 min incubation at room temperature, unbound dye was washed out with 1% (v/v) acetic acid, whereas bound dye was solubilized with 10 mM unbuffered TRIS (Avantor Performance Materials, Gliwice, Poland) solution. The entire procedure was performed using a BioTek EL-406 washing station (BioTek Instruments, USA). After additional 30 min, absorbance was read using a Biotek Hybrid H4 reader (BioTek Instruments, USA) at 540 nm wavelength. MTT assay was used alternatively for HL-60 cell line and in the experiment in which estrogens are added (specified in the table legend). Absorbance was measured using a Biotek Hybrid H4 reader at 570 nm wavelength for MTT assay.
(§2) Compounds at each concentration were tested in triplicate in a single experiment and each experiment was repeated at least three times independently. Results are presented as mean IC50±SD.
For orientation: Tetrazolium dyes change colour on reduction, which living cells bring about.

The test system of a further data set is arterial thrombosis. Put plainly: In vivo models of arterial thrombosis. On the set-up: species or system rat or mice. The settings on record: FIG. 5. The protocol:
To confirm antithrombotic activity of compounds of invention, inhibitors of PDIA3, pharmacological activity of selected compounds was tested in vivo in the rat or mice model of arterial thrombosis. Wistar rats were anaesthetized with pentobarbital (40 mg/kg, i.p.) and placed in a supine position on a heated (37° C.) operating table. Arterial thrombosis was induced by electrical stimulation of the right common carotid artery, as previously described (Kramkowski et al., 2012). Briefly, the anode, a stainless steel L-shaped wire, was inserted under the artery and connected to a constant current generator. The cathode was attached subcutaneously to the hind limb. The artery was stimulated (1 mA) for 10 min. Fifty-five minutes after the beginning of stimulation, the segment of the common carotid artery containing the formed thrombus was dissected and opened lengthwise, and the thrombus was completely removed and air-dried at room temperature for 24 h. Thrombus was then weighed in a blinded manner. Antithrombotic effects of compounds of invention in mice was analyzed using intravital fluorescence confocal microscopy as described previously (Hayashi T et al., 2008). […] Changes in fluorescence intensity were measured as described previously (Hayashi T et al., 2008, Kramkowski et al., 2002)

The next data set has as its system MCF-7. Put plainly: MTT antiproliferative assay, 72 h, with or without estradiol, MCF-7. In kind it is cell-based, human. The protocol: as §1, §2
Data set [1] relates to MDA-MB-231 cell transmigration across IL-1β-stimulated hLMVECs. Put plainly: Transendothelial migration of MDA-MB-231 cells across hLMVEC monolayer. In kind it is cell-based, human. The note with it: IL-1β 10 ng/mL (6 hours)-stimulated hLMVECs, 24 h co-culture, FIG. 6. As to the method:
To assess whether compounds of invention, PDI A3-inhibitors are also effective as inhibitors of cancer cell transmigration through endothelium the transmigration assay with MDA-MB-231/lung microvascular endothelium was used as described previously (Stojak et al., 2018). Cell migration was assayed in 24-well, 6.5-mm internal-diameter Transwell plates (8.0 μm pore size; BD Pharmingen). Human lung microvascular endothelial cells (hLMVECs) were seeded into 24-well plates (seeding density 5×10^4 cells/insert) on the upper side of the filter and left to grow to confluence. After confluent monolayer formation, hLMVECs were pre-treated with 10 ng/mL IL-1β for 6 h. Prior to use in transmigration assay, cancer cells were pre-incubated with various concentrations (3, 10, 30, 50, 100 μM) of tested inhibitors of PDIA3, C-3390, C-3399 for 30 min. Then, MDA-MB-231 cells (each 5×10^4 per well) were placed into upper chambers and tested PDI inhibitors at various concentrations (1, 10, 30, 50, 100 μM) were given. Lower chambers were filled with medium containing chemoattractant (20% FBS or 100 ng/mL SDF-1α). After 24 h of co-culture, hLMVEC monolayers and non-migrating cancer cells on the upper surface of the membrane were removed. […] The cell number was determined by measuring the fluorescence using plate reader. […]

A further data set has as its system HT-1080. Put plainly: MTT antiproliferative assay, 48 h, HT-1080. The data set is classed as cell-based, human. The settings on record: 48-hour exposition, read-out: Cytotoxicity, IC50, μM HT-1080. As to the method: Anticancer activity of compounds of invention, PDI A3-inhibitors has been tested in vitro in classical antiproliferative assay in various cancer cells lines. Monolayer tumor cell lines MDA-MB-231 (human mammary breast adenocarcinoma), MCF-7 (human breast adenocarcinoma, estrogen-positive), HT-1080 (human fibrosarcoma) and Caco-2 (human colon adenocarcinoma) were cultured in standard medium DMEM (Dulbecco's modified Eagle's medium) (“Sigma”) supplemented with 10% foetal bovine serum (“Sigma”). About 2000-4000 cells per well (depending on line nature) were placed in 96-well plates and after 24 h compounds were added to the wells. Untreated cells were used as a control. The plates were incubated for 48 h, 37° C., 5% CO2. The number of surviving cells was determined using 3-(4,5-dimethylthiazol-2-yl)-2,5-diphenyltetrazolinium bromide (MTT). MTT-test: after incubating culture medium was removed and 200 μL fresh medium with 20 μL MTT (2 mg/mL in HBSS) was added in each well of the plate. After incubation (3 hr., 37° C., 5% CO2), the medium with MTT was removed and 200 μL DMSO were added at once to each sample. The samples were tested at 540 nm on Thermo Scientific Multiskan EX microplate photometer. The half-maximal inhibitory concentration (IC50) of each compound was calculated using Graph Pad Prism® 3.0.

In brackets after ≈: the same amount, converted by molar mass.

One may read the IC50 as the concentration that inhibits the measured activity by half.

For `COC(=O)C1CN1S(=O)(=O)c1ccc2c(C=O)c(N(C)C)ccc2c1` (stereo not shown) [Compound C-3390, Methyl 1-[[6-(dimethylamino)-5-formyl-2-naphthyl]sulfonyl]aziridine-2-calboxylate], the “IC50 [μg/ml] HL-60 normal” value in the data set with HL-60 turned out to be 14.4 ± 0.7 µg/mL (≈ 39.7 µM). Also, in the data set on arterial thrombosis, the “Anti-thrombotic effects in vivo” value is recorded as “anti-thrombotic effects”. Further, the “Lower sensitivity after treatment with estradiol in MCF-7” value in the data set on MCF-7 (estradiol (200 nM), Table 4) was “not observed”. Besides, the “IC50 [μg/ml] MCF-7 normal” value in the data set with MCF-7 (not pretreated with estradiol, 72 hours exposition, MTT) worked out at 3.2 ± 0.3 µg/mL (≈ 8.83 µM). The “IC50 [μg/ml] MCF-7 +estradiol” value in the data set on MCF-7 (pretreated with 200 nM estradiol, 72 hours exposition, MTT) was 3.4 ± 0.3 µg/mL (≈ 9.38 µM). In addition, in data set [1], the “Inhibition of MDA-MB-231 cell transmigration” value is reported as “inhibited MDA-MB-231 cell transmigration”. In the data set on HT-1080, the IC50 was determined as 7.9 ± 0.9 µM.

Values taken from US20230069886A1, “AROMATIC SULPHONAMIDES DERIVATIVES THAT INHIBITS PDI A3, THEIR SYNTHESIS AND USE” (Uniwersytet Jagiellonski, priority 2020, published 2023).
